ChEMBL document CHEMBL4828721, “Substituted dienes prepared from betulinic acid - Synthesis, cytotoxicity, mechanism of action, and pharmacological parameters” (Eur J Med Chem, 2021)

Tested on: CCRF-CEM
Assay: Cytotoxicity against human CCRF-CEM cells assessed as reduction in cell viability measured after 72 hrs by MTS assay
Type: functional, cell-based
Details: not given

Row | SMILES | IC50
1 | C=C(/C=C/c1ccc(C(=O)O)cc1)[C@@H]1CC[C@]2(C(=O)O)CC[C@]3(C)[C@H](CC[C@@H]4[C@@]5(C)CC[C@H](O)C(C)(C)[C@@H]5CC[C@]43C)[C@@H]12 | 17.5 µM
2 | C=C(/C=C/c1ccc2ccccc2c1)[C@@H]1CC[C@]2(C(=O)O)CC[C@]3(C)[C@H](CC[C@@H]4[C@@]5(C)CC[C@H](O)C(C)(C)[C@@H]5CC[C@]43C)[C@@H]12 | 11.8 µM
3 | C=C(/C=C/c1cccc(C(=O)O)c1)[C@@H]1CC[C@]2(C(=O)O)CC[C@]3(C)[C@H](CC[C@@H]4[C@@]5(C)CC[C@H](O)C(C)(C)[C@@H]5CC[C@]43C)[C@@H]12 | 20.1 µM

Tested on: CEM-DNR
Assay: Cytotoxicity against daunorubicin resistant human CEM-DNR cells assessed as reduction in cell viability measured after 72 hrs by MTS assay
Type: functional, cell-based
Details: not given

Row | SMILES | IC50
4 | C=C(/C=C/c1ccc(C(=O)O)cc1)[C@@H]1CC[C@]2(C(=O)O)CC[C@]3(C)[C@H](CC[C@@H]4[C@@]5(C)CC[C@H](O)C(C)(C)[C@@H]5CC[C@]43C)[C@@H]12 | 32 µM
5 | C=C(/C=C/c1ccc2ccccc2c1)[C@@H]1CC[C@]2(C(=O)O)CC[C@]3(C)[C@H](CC[C@@H]4[C@@]5(C)CC[C@H](O)C(C)(C)[C@@H]5CC[C@]43C)[C@@H]12 | 47 µM
6 | C=C(/C=C/c1cccc(C(=O)O)c1)[C@@H]1CC[C@]2(C(=O)O)CC[C@]3(C)[C@H](CC[C@@H]4[C@@]5(C)CC[C@H](O)C(C)(C)[C@@H]5CC[C@]43C)[C@@H]12 | 33.9 µM

Tested on: HCT-116
Assay: Cytotoxicity against human HCT-116 cells assessed as reduction in cell viability measured after 72 hrs by MTS assay
Type: functional, cell-based
Details: HCT-116, 72 h

Row | SMILES | IC50
7 | C=C(/C=C/c1ccc(C(=O)O)cc1)[C@@H]1CC[C@]2(C(=O)O)CC[C@]3(C)[C@H](CC[C@@H]4[C@@]5(C)CC[C@H](O)C(C)(C)[C@@H]5CC[C@]43C)[C@@H]12 | 39 µM
8 | C=C(/C=C/c1ccc2ccccc2c1)[C@@H]1CC[C@]2(C(=O)O)CC[C@]3(C)[C@H](CC[C@@H]4[C@@]5(C)CC[C@H](O)C(C)(C)[C@@H]5CC[C@]43C)[C@@H]12 | 30.2 µM
9 | C=C(/C=C/c1cccc(C(=O)O)c1)[C@@H]1CC[C@]2(C(=O)O)CC[C@]3(C)[C@H](CC[C@@H]4[C@@]5(C)CC[C@H](O)C(C)(C)[C@@H]5CC[C@]43C)[C@@H]12 | 43.4 µM

Tested on: not listed separately
Assay: Cytotoxicity against human HCT116 p53-null cells assessed as reduction in cell viability measured after 72 hrs by MTS assay
Type: functional, cell-based
Details: not given

Row | SMILES | IC50
10 | C=C(/C=C/c1ccc(C(=O)O)cc1)[C@@H]1CC[C@]2(C(=O)O)CC[C@]3(C)[C@H](CC[C@@H]4[C@@]5(C)CC[C@H](O)C(C)(C)[C@@H]5CC[C@]43C)[C@@H]12 | 42.5 µM
11 | C=C(/C=C/c1ccc2ccccc2c1)[C@@H]1CC[C@]2(C(=O)O)CC[C@]3(C)[C@H](CC[C@@H]4[C@@]5(C)CC[C@H](O)C(C)(C)[C@@H]5CC[C@]43C)[C@@H]12 | 26.3 µM
12 | C=C(/C=C/c1cccc(C(=O)O)c1)[C@@H]1CC[C@]2(C(=O)O)CC[C@]3(C)[C@H](CC[C@@H]4[C@@]5(C)CC[C@H](O)C(C)(C)[C@@H]5CC[C@]43C)[C@@H]12 | 43.1 µM

Tested on: K562
Assay: Cytotoxicity against human K562 cells assessed as reduction in cell viability measured after 72 hrs by MTS assay
Type: functional, cell-based
Details: K562, 72 h

Row | SMILES | IC50
13 | C=C(/C=C/c1ccc(C(=O)O)cc1)[C@@H]1CC[C@]2(C(=O)O)CC[C@]3(C)[C@H](CC[C@@H]4[C@@]5(C)CC[C@H](O)C(C)(C)[C@@H]5CC[C@]43C)[C@@H]12 | > 50 µM
14 | C=C(/C=C/c1ccc2ccccc2c1)[C@@H]1CC[C@]2(C(=O)O)CC[C@]3(C)[C@H](CC[C@@H]4[C@@]5(C)CC[C@H](O)C(C)(C)[C@@H]5CC[C@]43C)[C@@H]12 | > 50 µM
15 | C=C(/C=C/c1cccc(C(=O)O)c1)[C@@H]1CC[C@]2(C(=O)O)CC[C@]3(C)[C@H](CC[C@@H]4[C@@]5(C)CC[C@H](O)C(C)(C)[C@@H]5CC[C@]43C)[C@@H]12 | > 50 µM

Tested on: not listed separately
Assay: Cytotoxicity against paclitaxel resistant human K562-Tax cells assessed as reduction in cell viability measured after 72 hrs by MTS assay
Type: functional, cell-based
Details: not given

Row | SMILES | IC50
16 | C=C(/C=C/c1ccc(C(=O)O)cc1)[C@@H]1CC[C@]2(C(=O)O)CC[C@]3(C)[C@H](CC[C@@H]4[C@@]5(C)CC[C@H](O)C(C)(C)[C@@H]5CC[C@]43C)[C@@H]12 | 39.2 µM
17 | C=C(/C=C/c1ccc2ccccc2c1)[C@@H]1CC[C@]2(C(=O)O)CC[C@]3(C)[C@H](CC[C@@H]4[C@@]5(C)CC[C@H](O)C(C)(C)[C@@H]5CC[C@]43C)[C@@H]12 | 45.8 µM
18 | C=C(/C=C/c1cccc(C(=O)O)c1)[C@@H]1CC[C@]2(C(=O)O)CC[C@]3(C)[C@H](CC[C@@H]4[C@@]5(C)CC[C@H](O)C(C)(C)[C@@H]5CC[C@]43C)[C@@H]12 | 36.7 µM

Tested on: A549
Assay: Cytotoxicity against human A549 cells assessed as reduction in cell viability measured after 72 hrs by MTS assay
Type: functional, cell-based
Details: A549, 72 h

Row | SMILES | IC50
19 | C=C(/C=C/c1ccc(C(=O)O)cc1)[C@@H]1CC[C@]2(C(=O)O)CC[C@]3(C)[C@H](CC[C@@H]4[C@@]5(C)CC[C@H](O)C(C)(C)[C@@H]5CC[C@]43C)[C@@H]12 | > 50 µM
20 | C=C(/C=C/c1ccc2ccccc2c1)[C@@H]1CC[C@]2(C(=O)O)CC[C@]3(C)[C@H](CC[C@@H]4[C@@]5(C)CC[C@H](O)C(C)(C)[C@@H]5CC[C@]43C)[C@@H]12 | 32.9 µM
21 | C=C(/C=C/c1cccc(C(=O)O)c1)[C@@H]1CC[C@]2(C(=O)O)CC[C@]3(C)[C@H](CC[C@@H]4[C@@]5(C)CC[C@H](O)C(C)(C)[C@@H]5CC[C@]43C)[C@@H]12 | > 50 µM

Tested on: U2OS
Assay: Cytotoxicity against human U2OS cells assessed as reduction in cell viability measured after 72 hrs by MTS assay
Type: functional, cell-based
Details: not given

Row | SMILES | IC50
22 | C=C(/C=C/c1ccc(C(=O)O)cc1)[C@@H]1CC[C@]2(C(=O)O)CC[C@]3(C)[C@H](CC[C@@H]4[C@@]5(C)CC[C@H](O)C(C)(C)[C@@H]5CC[C@]43C)[C@@H]12 | 49 µM
23 | C=C(/C=C/c1ccc2ccccc2c1)[C@@H]1CC[C@]2(C(=O)O)CC[C@]3(C)[C@H](CC[C@@H]4[C@@]5(C)CC[C@H](O)C(C)(C)[C@@H]5CC[C@]43C)[C@@H]12 | 27.2 µM
24 | C=C(/C=C/c1cccc(C(=O)O)c1)[C@@H]1CC[C@]2(C(=O)O)CC[C@]3(C)[C@H](CC[C@@H]4[C@@]5(C)CC[C@H](O)C(C)(C)[C@@H]5CC[C@]43C)[C@@H]12 | > 50 µM

Tested on: BJ
Assay: Cytotoxicity against human BJ cells assessed as reduction in cell viability measured after 72 hrs by MTS assay
Type: cell-based
Details: not given

Row | SMILES | IC50
25 | C=C(/C=C/c1ccc(C(=O)O)cc1)[C@@H]1CC[C@]2(C(=O)O)CC[C@]3(C)[C@H](CC[C@@H]4[C@@]5(C)CC[C@H](O)C(C)(C)[C@@H]5CC[C@]43C)[C@@H]12 | > 50 µM
26 | C=C(/C=C/c1ccc2ccccc2c1)[C@@H]1CC[C@]2(C(=O)O)CC[C@]3(C)[C@H](CC[C@@H]4[C@@]5(C)CC[C@H](O)C(C)(C)[C@@H]5CC[C@]43C)[C@@H]12 | > 50 µM
27 | C=C(/C=C/c1cccc(C(=O)O)c1)[C@@H]1CC[C@]2(C(=O)O)CC[C@]3(C)[C@H](CC[C@@H]4[C@@]5(C)CC[C@H](O)C(C)(C)[C@@H]5CC[C@]43C)[C@@H]12 | > 50 µM

Tested on: MRC5
Assay: Cytotoxicity against human MRC5 cells assessed as reduction in cell viability measured after 72 hrs by MTS assay
Type: cell-based
Details: MRC5, 72 h

Row | SMILES | IC50
28 | C=C(/C=C/c1ccc(C(=O)O)cc1)[C@@H]1CC[C@]2(C(=O)O)CC[C@]3(C)[C@H](CC[C@@H]4[C@@]5(C)CC[C@H](O)C(C)(C)[C@@H]5CC[C@]43C)[C@@H]12 | > 50 µM
29 | C=C(/C=C/c1ccc2ccccc2c1)[C@@H]1CC[C@]2(C(=O)O)CC[C@]3(C)[C@H](CC[C@@H]4[C@@]5(C)CC[C@H](O)C(C)(C)[C@@H]5CC[C@]43C)[C@@H]12 | 43.1 µM
30 | C=C(/C=C/c1cccc(C(=O)O)c1)[C@@H]1CC[C@]2(C(=O)O)CC[C@]3(C)[C@H](CC[C@@H]4[C@@]5(C)CC[C@H](O)C(C)(C)[C@@H]5CC[C@]43C)[C@@H]12 | > 50 µM
